Data set [1] can be described thus: Cytotoxicity/antiproliferative MTT assay in CHO host cells. It is filed as cell-based, hamster. Conditions: Chinese hamster, CHO-K1 cells.
For data set [2], the system named is GFP-expressing T. cruzi (Y) trypomastigotes released from infected CHO cells. The data set is described as follows: microbe, parasite or virus in culture. It counts as cell-based, Trypanosoma cruzi. Conditions: for inhibition at 5 µM: read-out: Percentage inhibition of parasite release at 5 μM (low ROS).
Data set [3] has as its system T. cruzi epimastigotes (Y strain). The data set is described as follows: microbe, parasite or virus in culture. It counts as cell-based, Trypanosoma cruzi. Conditions: for Selectivity Index (CC50 CHO/IC50 Epi): CC50 CHO / IC50 epimastigotes; for IC50: Trypanosoma cruzi, 72 h, read-out: IC50 epimastigotes.
For data set [4], the system named is T. cruzi parasite release from trypomastigote-infected CHO cells. Description: microbe, parasite or virus in culture. It is filed as cell-based. Particulars: Trypanosoma cruzi; for IC50: read-out: IC50 inhibition of parasite release, serum-free conditions (high ROS), serum-free host cell culture as used in the screening.
The conditions of data set [5]: rodents; ref Li et al., 2020; cited from earlier work.
The target in the next data set is casein kinase 1. Conditions: read-out: IC50 casein kinase 1; ref Justiniano et al., 2014; cited from earlier work.
The test system of the next data set is CHO-K1 cells. Description: Cytotoxicity/antiproliferative MTT assay in CHO host cells. It counts as cell-based, hamster. Particulars: read-out: CC50 CHO cells; 72-hr incubation; anthraquinones (Table 5).
The mark [6] stands for this setting: CC50 CHO cells, 72-hr incubation, anthraquinones (Table 5).
The mark [7] stands for this setting: Cytotoxicity CC50 CHO cells, 72 hr (Table 3).
The mark [8] stands for this setting: read-out: IC50 inhibition of parasite release, 0.5% hiFBS (low ROS), 0.5% hiFBS, low ROS, GFP-expressing trypomastigotes, 6 dpi.
Where [9] appears, read: Cytotoxicity CC50 CHO cells without FBS, 72 hr, without FBS.
Setting [10] is: read-out: Percentage inhibition of parasite release (serum-free) at 5 μM, 5 μM, serum-free, 6 dpi, CHO host cells.

This is an account of results in PMC8040286 (iScience, 2021).

Like-named read-outs stand apart in the source and are kept apart here.

The CC50 is the concentration that lowers cell viability or growth by half. The inhibition is the percentage by which the read-out fell short of the control. By IC50 is commonly meant the concentration that gives 50% inhibition. Regarding `O=C(Cn1ccnc1[N+](=O)[O-])NCc1ccccc1` [BZN, benznidazole, reference compound], the half-maximal cytotoxic concentration (CC50) at 72 h in data set [1] (setting [6]) and in data set [1] (setting [7]) was greater than 100 µM in each case. In addition, the inhibition at 5 µM in data set [2] (Trypanosoma cruzi, CHO) worked out at 84.9 ± 4.8%. For the same molecule, the half-maximal inhibitory concentration (IC50) is 1.4 µM in data set [2] (setting [8]), 13.8 ± 2.9 µM in data set [3] and 5 to 9 µM in data set [4]. For the same molecule, in data set [3], the “Selectivity Index (CC50 CHO/IC50 Epi)” value is given as greater than 7.

Consider `C=C1C(=O)O[C@@H]2/C=C(\C)CC/C=C(\C)CC[C@@H]12` [Costunolide, (6R, 7S)-costunolide], for which the CC50 at 72 h in data set [1] (setting [9]) came out at 35.4 ± 13.8 µM; in data set [1] (setting [7]) it was 10.9 ± 3.7 µM. For the same molecule, in data set [3], the half-maximal inhibitory concentration (IC50) came to 7.4 ± 5.9 µM. Besides, the inhibition at 5 µM in data set [4] (setting [10]) was 0%.

As for `C=C1CC[C@H]2C(=C)CC[C@H]3C(=C)C(=O)O[C@@H]3[C@@H]12` [Dehydrocostus lactone], the CC50 at 72 h is 12.2 ± 0.5 µM in data set [1] (setting [9]) and 5.8 ± 1.9 µM in data set [1] (setting [7]). In addition, the half-inhibitory concentration (IC50) in data set [3] stood at 1.4 ± 0.4 µM. Further, in data set [4] (setting [10]), the inhibition at 5 µM is 86.2 ± 4.1%.

`C=C[C@@H](O)C#CC#C[C@@H](O)/C=C\CCCCCCC` [Falcarindiol]: the CC50 at 72 h in data set [1] is greater than 100 µM. In addition, the half-maximal inhibitory concentration (IC50) in data set [3] is greater than 50 µM. Moreover, in data set [4] (read-out: Percentage inhibition of parasite release (serum-free) at 5 μM), the inhibition at 5 µM came out at 0%.

Take `CC(=O)c1c(C)cc2cccc(O)c2c1O` [Nepodin]: in data set [1] (setting [7]), the 50% cytotoxic concentration (CC50) at 72 h is greater than 100 µM. Moreover, the IC50 in data set [3] was found to be 28.7 ± 13.3 µM. Besides, the inhibition at 5 µM in data set [4] (setting [10]) is roughly 30%.

Regarding `C=C1[C@@H]2[C@H]3OC(=O)C(=C)[C@@H]3CCC(=C)[C@@H]2C[C@@H]1O` [Zaluzanin C], the values for the CC50 at 72 h in data set [1] (setting [9]) and in data set [1] (setting [7]) were 19.2 ± 5.2 µM and 6.6 ± 1.7 µM, respectively. For the same molecule, the IC50 in data set [3] came to 6.7 ± 0.7 µM. Further, the inhibition at 5 µM in data set [4] (setting [10]) is 71 ± 7.5%.

In data set [1], `O=C1c2ccccc2C(=O)c2ccccc21` [compound 1, Anthraquinone] registered a CC50 at 72 h greater than 100 µM. In addition, in data set [2] (Trypanosoma cruzi, CHO), the inhibition at 5 µM stood at 22.2 ± 9.6%. Also, the IC50 in data set [3] is greater than 50 µM.

With `Cc1cc(O)c2c(c1)C(=O)c1cc(O)cc(O)c1C2=O` [compound 2, Emodin], the CC50 at 72 h in data set [1] (setting [6]) and in data set [1] (setting [7]) was greater than 100 µM each time. Also, the half-maximal inhibitory concentration (IC50) was 9.52 µM in data set [2] (Trypanosoma cruzi, CHO, read-out: IC50 inhibition of parasite release, 0.5% hiFBS (low ROS), 0.5% hiFBS, low ROS, GFP-expressing trypomastigotes, 6 dpi); 9.5 µM in data set [2] (setting [8]); 14.1 ± 8.2 µM in data set [3]; 0.72 µM in data set [4]; 130 µM on casein kinase 1. The inhibition at 5 µM is 24.8 ± 12.9% in data set [2] (Trypanosoma cruzi, CHO) and 61.5 ± 18.2% in data set [4] (setting [10]). The “Selectivity Index (CC50 CHO/IC50 Epi)” value in data set [3] is recorded as greater than 7. The oral bioavailability in data set [5] was 5–10%.

For `O=C1c2ccccc2C(=O)c2c(O)c(O)cc(O)c21` [compound 3, Purpurin], the half-maximal cytotoxic concentration (CC50) at 72 h in data set [1] (setting [6]) stood at 59.5 ± 10.1 µM. Besides, in data set [2] (Trypanosoma cruzi, CHO), the inhibition at 5 µM is 48.3 ± 18.1%. Further, the “selectivity index (parasite release)” value in data set [2] (basis not stated, discussion) came out at 7. For the same molecule, the IC50 in data set [3] was greater than 50 µM.

With `O=C1c2ccccc2C(=O)c2c1ccc(O)c2O` [compound 4, Alizarin], the inhibition at 5 µM in data set [2] (Trypanosoma cruzi, CHO) was found to be 0%. Also, the 50% inhibitory concentration (IC50) in data set [3] was greater than 50 µM.

Turning to `O=C1c2ccccc2C(=O)c2c1cc(S(=O)(=O)O)c(O)c2O` [compound 5, Alizarin Red S], in data set [2] (Trypanosoma cruzi, CHO), the inhibition at 5 µM was found to be 0%. In data set [3], the IC50 was greater than 50 µM.

Take `O=C1c2ccccc2C(=O)c2c(O)ccc(O)c21` [compound 6, Quinizarin]: the CC50 in the data set on CHO-K1 cells amounted to 38.1 ± 16 µM. In data set [1] (setting [6]), this molecule returned a half-maximal cytotoxic concentration (CC50) at 72 h of 38 ± 16 µM. The inhibition at 5 µM in data set [2] (Trypanosoma cruzi, CHO) was found to be 68.5 ± 19.2%. Also, in data set [3], the “Selectivity Index (CC50 CHO/IC50 Epi)” value is on record as less than 1 and the IC50 is greater than 50 µM.

For the molecule `O=C1c2cccc(O)c2C(=O)c2cccc(O)c21` [compound 7, Anthrarufin], the inhibition at 5 µM in data set [2] (Trypanosoma cruzi, CHO) came out at 0%. For the same molecule, the IC50 in data set [3] is greater than 50 µM.

For `O=C1c2cccc(O)c2C(=O)c2c(O)cccc21` [compound 8, Dantron], the inhibition at 5 µM in data set [2] (Trypanosoma cruzi, CHO) is 0%. In addition, the half-inhibitory concentration (IC50) in data set [3] was 5.3 ± 2.3 µM.

For the molecule `O=C1c2ccc(O)cc2C(=O)c2ccc(O)cc21` [compound 9, Anthraflavic acid], the inhibition at 5 µM in data set [2] (Trypanosoma cruzi, CHO) was determined as 0%. Further, the concentration for half-maximal inhibition (IC50) in data set [3] was greater than 50 µM.

`Cc1cc(O)c2c(c1)C(=O)c1cccc(O)c1C2=O` [compound 10, Chrysophanol]: in data set [1] (setting [6]), the CC50 at 72 h was 35.7 ± 7.4 µM. The inhibition at 5 µM in data set [2] (Trypanosoma cruzi, CHO) came to 22.6 ± 17.2%. Moreover, in data set [3], the “Selectivity Index (CC50 CHO/IC50 Epi)” value is listed as 5.4 and the IC50 worked out at 6.6 ± 3.5 µM.

Molecule `O=C1c2cccc(O)c2C(=O)c2c(O)cc(CO)cc21` [compound 11, Aloe-emodin] showed a CC50 at 72 h in data set [1] (setting [6]) of 42 ± 15.5 µM. The inhibition at 5 µM in data set [2] (Trypanosoma cruzi, CHO) amounted to 44 ± 17.6%. In data set [3], the “Selectivity Index (CC50 CHO/IC50 Epi)” value is 2.9 and the half-inhibitory concentration (IC50) came to 14.5 ± 5.6 µM.

As to `COc1cc(O)c2c(c1)C(=O)c1cc(C)cc(O)c1C2=O` [compound 12, Physcion], the inhibition at 5 µM in data set [2] (Trypanosoma cruzi, CHO) is 0%. Moreover, in data set [3], the half-inhibitory concentration (IC50) worked out at 6.4 ± 3.7 µM.

In the case of `Cc1cc2c(cc1O)C(=O)c1ccccc1C2=O` [compound 13, 2-Hydroxy-3-methylanthraquinone], in data set [2] (Trypanosoma cruzi, CHO), the inhibition at 5 µM stood at 0%. Further, in data set [3], the 50% inhibitory concentration (IC50) is greater than 50 µM.

As for `Cc1c(O)ccc2c1C(=O)c1ccccc1C2=O` [compound 14, 2-Hydroxy-1-methylanthraquinone], the cytotoxic concentration (CC50) at 72 h in data set [1] (setting [6]) is 88.9 ± 8.9 µM. Moreover, in data set [2] (Trypanosoma cruzi, CHO), the inhibition at 5 µM is 20.9 ± 9.7%. In data set [3], the 50% inhibitory concentration (IC50) was greater than 50 µM.

With `O=C(O)c1cc(O)c2c(c1)C(=O)c1cccc(O)c1C2=O` [compound 15, Rhein], the inhibition at 5 µM in data set [2] (Trypanosoma cruzi, CHO) came out at 0%. Besides, the 50% inhibitory concentration (IC50) in data set [3] was greater than 50 µM.

Regarding `CC(=O)Oc1cccc2c1C(=O)c1c(OC(C)=O)cc(C(=O)O)cc1C2=O` [compound 16, Diacerein], the inhibition at 5 µM in data set [2] (Trypanosoma cruzi, CHO) was determined as 0%. The half-maximal inhibitory concentration (IC50) in data set [3] was greater than 50 µM.

`COc1cc(N)c2c(c1N)C(=O)c1ccccc1C2=O` [compound 17, Disperse Red11]: the CC50 at 72 h in data set [1] (setting [6]) was greater than 100 µM. Moreover, the inhibition at 5 µM in data set [2] (Trypanosoma cruzi, CHO) was determined as 46.8 ± 25.6%. Also, in data set [3], the “Selectivity Index (CC50 CHO/IC50 Epi)” value was greater than 3 and the half-maximal inhibitory concentration (IC50) turned out to be 32.9 ± 13.9 µM.

As to `COc1c(O)cc2c(c1O)C(=O)c1c(cc(C)c(O)c1OC)C2=O` [compound 18, Aurantio-obtusin], the inhibition at 5 µM in data set [2] (Trypanosoma cruzi, CHO) stood at 0%. In addition, the IC50 in data set [3] was greater than 50 µM.
